IC50 and Ki data for 11 compounds are collected here from ChEMBL document CHEMBL1909046, “DrugMatrix in vitro pharmacology data”.

Chain of Mu-type opioid receptor (P35372 whole entry): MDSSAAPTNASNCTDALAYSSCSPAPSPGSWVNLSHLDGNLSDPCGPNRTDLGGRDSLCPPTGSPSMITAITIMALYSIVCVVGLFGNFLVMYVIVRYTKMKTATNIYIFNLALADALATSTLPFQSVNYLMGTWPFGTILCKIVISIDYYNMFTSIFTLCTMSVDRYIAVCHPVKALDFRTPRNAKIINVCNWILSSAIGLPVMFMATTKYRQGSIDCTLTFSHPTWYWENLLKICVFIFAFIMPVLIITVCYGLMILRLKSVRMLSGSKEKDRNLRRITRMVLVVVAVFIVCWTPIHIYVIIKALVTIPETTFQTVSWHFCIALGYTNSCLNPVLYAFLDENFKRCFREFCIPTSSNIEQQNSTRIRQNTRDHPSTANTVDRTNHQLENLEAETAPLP

One experiment deals with Cannabinoid receptor 1 (Homo sapiens, UniProt P21554).
Chain of Cannabinoid receptor 1 (P21554 whole entry): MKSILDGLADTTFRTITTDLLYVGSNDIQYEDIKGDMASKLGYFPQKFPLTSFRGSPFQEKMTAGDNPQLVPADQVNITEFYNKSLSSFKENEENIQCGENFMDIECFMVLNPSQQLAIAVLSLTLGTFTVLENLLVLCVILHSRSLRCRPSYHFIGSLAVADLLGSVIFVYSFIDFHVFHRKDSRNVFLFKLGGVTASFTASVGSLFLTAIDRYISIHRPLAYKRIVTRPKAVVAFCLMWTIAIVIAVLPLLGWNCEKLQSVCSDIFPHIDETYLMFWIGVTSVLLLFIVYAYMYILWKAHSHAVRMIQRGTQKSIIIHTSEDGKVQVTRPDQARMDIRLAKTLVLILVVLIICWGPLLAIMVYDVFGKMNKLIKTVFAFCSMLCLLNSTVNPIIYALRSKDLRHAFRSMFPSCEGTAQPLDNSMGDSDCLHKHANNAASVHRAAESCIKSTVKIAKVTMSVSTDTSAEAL
Assay: not given
The experiment is classed as cell membranes, Membrane. Particulars: chem-1.
In the case of `Nc1nc2c(c(=O)[nH]1)N(C=O)C(CNc1ccc(C(=O)N[C@@H](CCC(=O)O)C(=O)O)cc1)CN2` (some centres not stated) [LEUCOVORIN], the IC50 entry was “Not Active”.
As for `C[C@@H](O)[C@H]1C(=O)N2C(C(=O)O)=C(S[C@@H]3CN[C@H](C(=O)N(C)C)C3)[C@H](C)[C@H]12` [MEROPENEM], the IC50 entry is recorded as “Not Active”.
Same read-out and setting: in the case of `CC[C@@H](CO)NC(=O)[C@@H]1C=C2c3cccc4c3c(cn4C)C[C@H]2N(C)C1` [METHYSERGIDE] it was “Not Active”.
Consider `CCN(CC)CC#CCOC(=O)C(O)(c1ccccc1)C1CCCCC1` (configuration not stated) [OXYBUTYNIN], for which the IC50 entry is “Not Active”.
Still for that read-out and setting: the entry for `O=P(O)(O)C(O)(Cc1cccnc1)P(=O)(O)O` [RISEDRONIC ACID] is “Not Active”.
In the case of `CN(CCOc1ccc(CC2SC(=O)NC2=O)cc1)c1ccccn1` (configuration not stated) [ROSIGLITAZONE], the IC50 result was “Not Active”.
For the compound `C=C(C)[C@H]1Cc2c(ccc3c2O[C@@H]2COc4cc(OC)c(OC)cc4[C@@H]2C3=O)O1` [ROTENONE], the IC50 result was “Not Active”.
Turning to `O=c1n(CCCN2CCN(c3cccc(Cl)c3)CC2)nc2ccccn12` [TRAZODONE], the IC50 entry was “Not Active”.
Take `O=C(O)C(Cl)(Cl)Cl` [TRICHLOROACETIC ACID]: the concentration for half-maximal inhibition (IC50) result is listed as “Not Active”.
For STANNOUS FLUORIDE, the IC50 entry is given as “Not Active” and the Ki result was “Not Active”.
Turning to THIMEROSAL, the IC50 result was “Not Active” and the Ki result was “Not Active”.

Tested on in a further experiment: not listed separately
Put plainly: DRUGMATRIX: Interleukin IL-1 radioligand binding (ligand: [125I] interleukin 1beta). The experiment is classed as cell membranes, Membrane. Particulars: nih3t3; Not Active = under 50% inhibition at 10 µM.
For the compound `Nc1nc2c(c(=O)[nH]1)N(C=O)C(CNc1ccc(C(=O)N[C@@H](CCC(=O)O)C(=O)O)cc1)CN2` (some centres not stated) [LEUCOVORIN], the IC50 entry is reported as “Not Active” and the Ki entry was “Not Active”.
On to `C[C@@H](O)[C@H]1C(=O)N2C(C(=O)O)=C(S[C@@H]3CN[C@H](C(=O)N(C)C)C3)[C@H](C)[C@H]12` [MEROPENEM], for which the IC50 entry is on record as “Not Active” and the Ki result is “Not Active”.
With `O=P(O)(O)C(O)(Cc1cccnc1)P(=O)(O)O` [RISEDRONIC ACID], the IC50 result is reported as “Not Active” and the Ki entry is “Not Active”.
Turning to `CN(CCOc1ccc(CC2SC(=O)NC2=O)cc1)c1ccccn1` (configuration not stated) [ROSIGLITAZONE], the IC50 result was “Not Active” and the Ki entry is listed as “Not Active”.
As for `C=C(C)[C@H]1Cc2c(ccc3c2O[C@@H]2COc4cc(OC)c(OC)cc4[C@@H]2C3=O)O1` [ROTENONE], the IC50 entry is recorded as “Not Active” and the Ki result was “Not Active”.
For `O=C(O)C(Cl)(Cl)Cl` [TRICHLOROACETIC ACID], the IC50 result was “Not Active” and the Ki entry is reported as “Not Active”.
As for STANNOUS FLUORIDE, the IC50 result is given as “Not Active” and the Ki result was “Not Active”.
With THIMEROSAL, the IC50 result is “Not Active” and the inhibition constant Ki result is “Not Active”.

Another experiment addresses Mu-type opioid receptor (Homo sapiens, UniProt P35372). Kind of experiment: DRUGMATRIX: Opiate mu (OP3, MOP) radioligand binding (ligand: [3H] Diprenorphine). The experiment is classed as cell membranes, CHO-K1, Membrane. The note with it: cho-k1; Not Active = under 50% inhibition at 10 µM.
In the case of `Nc1nc2c(c(=O)[nH]1)N(C=O)C(CNc1ccc(C(=O)N[C@@H](CCC(=O)O)C(=O)O)cc1)CN2` (some centres not stated) [LEUCOVORIN], the IC50 result is recorded as “Not Active”.
Turning to `C[C@@H](O)[C@H]1C(=O)N2C(C(=O)O)=C(S[C@@H]3CN[C@H](C(=O)N(C)C)C3)[C@H](C)[C@H]12` [MEROPENEM], the IC50 result is given as “Not Active”.
Still for that read-out and setting: the entry for `CC[C@@H](CO)NC(=O)[C@@H]1C=C2c3cccc4c3c(cn4C)C[C@H]2N(C)C1` [METHYSERGIDE] is “Not Active”; for `CCN(CC)CC#CCOC(=O)C(O)(c1ccccc1)C1CCCCC1` (configuration not stated) [OXYBUTYNIN] it is “Not Active”; for `O=P(O)(O)C(O)(Cc1cccnc1)P(=O)(O)O` [RISEDRONIC ACID] it is “Not Active”.
Regarding `CN(CCOc1ccc(CC2SC(=O)NC2=O)cc1)c1ccccn1` (configuration not stated) [ROSIGLITAZONE], the IC50 result was “Not Active”.
On the same count and under the same terms, in the case of `O=c1n(CCCN2CCN(c3cccc(Cl)c3)CC2)nc2ccccn12` [TRAZODONE] it was “Not Active”.

The target in another experiment is Platelet-activating factor receptor (Homo sapiens, UniProt P25105). Put plainly: biochemical. It is filed as tissue-based. Particulars: platelet. Also: in other assays of this panel Not Active means under 50% inhibition at 10 µM.
Chain of Platelet-activating factor receptor (P25105 whole entry): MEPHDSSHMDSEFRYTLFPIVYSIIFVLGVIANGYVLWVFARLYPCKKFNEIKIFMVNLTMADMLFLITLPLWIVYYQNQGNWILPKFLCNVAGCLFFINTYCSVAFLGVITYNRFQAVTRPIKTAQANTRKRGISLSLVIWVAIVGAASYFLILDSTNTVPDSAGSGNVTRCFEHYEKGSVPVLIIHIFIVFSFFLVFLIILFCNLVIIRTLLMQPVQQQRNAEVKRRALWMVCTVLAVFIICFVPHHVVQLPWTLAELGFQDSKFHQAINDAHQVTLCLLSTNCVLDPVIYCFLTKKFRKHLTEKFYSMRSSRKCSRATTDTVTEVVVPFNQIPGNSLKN
`Nc1nc2c(c(=O)[nH]1)N(C=O)C(CNc1ccc(C(=O)N[C@@H](CCC(=O)O)C(=O)O)cc1)CN2` (some centres not stated) [LEUCOVORIN]: the IC50 entry is given as “Not Active”.
As for `C[C@@H](O)[C@H]1C(=O)N2C(C(=O)O)=C(S[C@@H]3CN[C@H](C(=O)N(C)C)C3)[C@H](C)[C@H]12` [MEROPENEM], the IC50 result is listed as “Not Active”.
Regarding `CC[C@@H](CO)NC(=O)[C@@H]1C=C2c3cccc4c3c(cn4C)C[C@H]2N(C)C1` [METHYSERGIDE], the concentration for half-maximal inhibition (IC50) entry is “Not Active”.
For the compound `CCN(CC)CC#CCOC(=O)C(O)(c1ccccc1)C1CCCCC1` (configuration not stated) [OXYBUTYNIN], the IC50 entry is listed as “Not Active”.
For `O=P(O)(O)C(O)(Cc1cccnc1)P(=O)(O)O` [RISEDRONIC ACID], the IC50 entry is given as “Not Active”.
Turning to `CN(CCOc1ccc(CC2SC(=O)NC2=O)cc1)c1ccccn1` (configuration not stated) [ROSIGLITAZONE], the IC50 entry is “Not Active”.
With `C=C(C)[C@H]1Cc2c(ccc3c2O[C@@H]2COc4cc(OC)c(OC)cc4[C@@H]2C3=O)O1` [ROTENONE], the IC50 entry was “Not Active”.
In the case of `O=c1n(CCCN2CCN(c3cccc(Cl)c3)CC2)nc2ccccn12` [TRAZODONE], the IC50 result was “Not Active”.
On the same count and under the same terms, the entry for `O=C(O)C(Cl)(Cl)Cl` [TRICHLOROACETIC ACID] is “Not Active”.
For STANNOUS FLUORIDE, the concentration for half-maximal inhibition (IC50) result is “Not Active” and the inhibitory constant (Ki) result is listed as “Not Active”.
Turning to THIMEROSAL, the IC50 result is “Not Active” and the inhibitory constant (Ki) entry is given as “Not Active”.

The target of another experiment is 5-hydroxytryptamine receptor 6 (Homo sapiens, UniProt P50406). Also: in other assays of this panel Not Active means under 50% inhibition at 10 µM.
Chain of 5-hydroxytryptamine receptor 6 (P50406 whole entry): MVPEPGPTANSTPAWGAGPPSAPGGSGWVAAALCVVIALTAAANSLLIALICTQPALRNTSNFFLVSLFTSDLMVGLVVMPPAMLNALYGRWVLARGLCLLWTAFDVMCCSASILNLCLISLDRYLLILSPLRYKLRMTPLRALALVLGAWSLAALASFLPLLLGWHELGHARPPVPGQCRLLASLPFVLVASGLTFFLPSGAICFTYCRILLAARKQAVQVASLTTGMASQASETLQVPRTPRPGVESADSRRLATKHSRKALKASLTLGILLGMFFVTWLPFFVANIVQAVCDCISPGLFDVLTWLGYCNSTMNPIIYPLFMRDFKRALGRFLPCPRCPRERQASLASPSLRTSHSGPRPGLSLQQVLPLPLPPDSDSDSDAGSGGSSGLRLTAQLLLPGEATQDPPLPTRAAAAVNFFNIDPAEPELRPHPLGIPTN
Assay: not given
It is filed as cell membranes, HeLa, Membrane. Particulars: hela.
Regarding `Nc1nc2c(c(=O)[nH]1)N(C=O)C(CNc1ccc(C(=O)N[C@@H](CCC(=O)O)C(=O)O)cc1)CN2` (some centres not stated) [LEUCOVORIN], the IC50 result is listed as “Not Active”.
On to `C[C@@H](O)[C@H]1C(=O)N2C(C(=O)O)=C(S[C@@H]3CN[C@H](C(=O)N(C)C)C3)[C@H](C)[C@H]12` [MEROPENEM], for which the IC50 entry was “Not Active”.
For `CCN(CC)CC#CCOC(=O)C(O)(c1ccccc1)C1CCCCC1` (configuration not stated) [OXYBUTYNIN], the IC50 entry is given as “Not Active”.
As to `O=P(O)(O)C(O)(Cc1cccnc1)P(=O)(O)O` [RISEDRONIC ACID], the IC50 result is “Not Active”.
As to `CN(CCOc1ccc(CC2SC(=O)NC2=O)cc1)c1ccccn1` (configuration not stated) [ROSIGLITAZONE], the IC50 entry is “Not Active”.
For `O=c1n(CCCN2CCN(c3cccc(Cl)c3)CC2)nc2ccccn12` [TRAZODONE], the IC50 result is on record as “Not Active”.
As to `O=C(O)C(Cl)(Cl)Cl` [TRICHLOROACETIC ACID], the IC50 entry was “Not Active”.
With STANNOUS FLUORIDE, the IC50 result is given as “Not Active” and the Ki entry is on record as “Not Active”.

Still in this experiment, the particulars now being: hela; read-out: IC50.
Regarding THIMEROSAL, the half-inhibitory concentration (IC50) was 5940 nM.

Still in this experiment, the particulars now being: hela; read-out: Ki.
THIMEROSAL: the Ki is 2760 nM.

Still in this experiment, the particulars now being: read-out: IC50.
As for `CC[C@@H](CO)NC(=O)[C@@H]1C=C2c3cccc4c3c(cn4C)C[C@H]2N(C)C1` [METHYSERGIDE], the IC50 was 162 nM.
Still for that read-out and setting: in the case of `C=C(C)[C@H]1Cc2c(ccc3c2O[C@@H]2COc4cc(OC)c(OC)cc4[C@@H]2C3=O)O1` [ROTENONE] it was 870 nM.

The experiment is the same for the next values; noted with them: read-out: Ki.
For the compound `CC[C@@H](CO)NC(=O)[C@@H]1C=C2c3cccc4c3c(cn4C)C[C@H]2N(C)C1` [METHYSERGIDE], the Ki was found to be 75 nM.
On to `C=C(C)[C@H]1Cc2c(ccc3c2O[C@@H]2COc4cc(OC)c(OC)cc4[C@@H]2C3=O)O1` [ROTENONE], for which the Ki was 404 nM.

In another experiment the target is Melanocortin receptor 5 (Homo sapiens, UniProt P33032). Also: in other assays of this panel Not Active means under 50% inhibition at 10 µM.
Chain of Melanocortin receptor 5 (P33032 whole entry): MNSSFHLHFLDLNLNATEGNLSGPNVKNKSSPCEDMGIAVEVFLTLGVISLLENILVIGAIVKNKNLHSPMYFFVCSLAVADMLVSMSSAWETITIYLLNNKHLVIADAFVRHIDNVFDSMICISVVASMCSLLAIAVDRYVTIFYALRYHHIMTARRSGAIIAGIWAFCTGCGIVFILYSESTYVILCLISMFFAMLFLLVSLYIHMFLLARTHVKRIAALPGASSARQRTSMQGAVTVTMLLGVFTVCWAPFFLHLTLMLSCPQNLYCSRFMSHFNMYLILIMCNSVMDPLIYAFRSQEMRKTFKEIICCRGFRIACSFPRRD
Assay: not given
The experiment is classed as cell membranes, HEK293, Membrane. Particulars: hek293.
In the case of `Nc1nc2c(c(=O)[nH]1)N(C=O)C(CNc1ccc(C(=O)N[C@@H](CCC(=O)O)C(=O)O)cc1)CN2` (some centres not stated) [LEUCOVORIN], the IC50 entry was “Not Active”.
Turning to `C[C@@H](O)[C@H]1C(=O)N2C(C(=O)O)=C(S[C@@H]3CN[C@H](C(=O)N(C)C)C3)[C@H](C)[C@H]12` [MEROPENEM], the IC50 result was “Not Active”.
`CC[C@@H](CO)NC(=O)[C@@H]1C=C2c3cccc4c3c(cn4C)C[C@H]2N(C)C1` [METHYSERGIDE]: the IC50 result was “Not Active”.
Take `CCN(CC)CC#CCOC(=O)C(O)(c1ccccc1)C1CCCCC1` (configuration not stated) [OXYBUTYNIN]: the IC50 entry is “Not Active”.
With `O=P(O)(O)C(O)(Cc1cccnc1)P(=O)(O)O` [RISEDRONIC ACID], the IC50 result is recorded as “Not Active”.
Regarding `CN(CCOc1ccc(CC2SC(=O)NC2=O)cc1)c1ccccn1` (configuration not stated) [ROSIGLITAZONE], the IC50 result was “Not Active”.
Still for that read-out and setting: in the case of `C=C(C)[C@H]1Cc2c(ccc3c2O[C@@H]2COc4cc(OC)c(OC)cc4[C@@H]2C3=O)O1` [ROTENONE] it was “Not Active”.
With `O=c1n(CCCN2CCN(c3cccc(Cl)c3)CC2)nc2ccccn12` [TRAZODONE], the concentration for half-maximal inhibition (IC50) result is “Not Active”.
Consider `O=C(O)C(Cl)(Cl)Cl` [TRICHLOROACETIC ACID], for which the IC50 result is “Not Active”.
Take STANNOUS FLUORIDE: the IC50 result was “Not Active” and the inhibition constant (Ki) result was “Not Active”.
Regarding THIMEROSAL, the IC50 entry is listed as “Not Active” and the Ki result is reported as “Not Active”.
